Where a SMILES comes first, the peptide text is derived from it. Bridges are numbered along the chain shown (N, C = ends). Primed or numbered codes have the meaning given here. Where no end group is shown, it is not given here. [ ]: non-standard residue; d: D form. FITC′ = not defined here

Assay [1] concerns endogenous HTT. Nature of the assay: Macrocycle precipitation (MP) of endogenous HTT from HEK293T cell extracts. Format: binding, human. As to conditions: HEK293 cell lysate, 2 mg protein, streptavidin beads conjugated at 1.25 μM macrocycle, 1 hour at 4°C. The method, then:
To explore binding and selectivity within a more physiological context, we used biotinylated derivatives of macrocycles to affinity purify HTT from cellular extracts, which we term “macrocycle precipitations” (MPs)(Figure 5a). The macrocycles were joined to the biotin using either a 2 amino acid linker (AK-Bio) or a PEG11 spacer (PEG11-Bio) (Supplementary Figure 12a). Extracts were prepared from HEK293T cells, including HTT knock-out lines and streptavidin beads were used to attempt to capture macrocycle–HTT complexes, and potentially associated binding partners.
(§1) Macrocycles were pre-conjugated to streptavidin beads (Cytiva, 17-5113-01) by incubating with a 30 μL slurry of beads per macrocycle purification (MP) in Lysis Buffer (10 mM Tris-HCl, pH 7.9, 150 mM NaCl, 0.1% NP-40, 1:500 protease inhibitor cocktail (Sigma-Aldrich), 1:1,000 benzonase nuclease, and 2 mM MgCl2) for 1 hour at 4°C. A concentration of 1.25 μM macrocycle was used for conjugation. After incubation, beads were washed three times with 500 μL Lysis Buffer to remove unbound macrocycles and resuspended in 500 μL of lysate at 4 mg/mL protein concentration.
(§2) Cells were harvested by centrifugation at 1,500 rpm for 5 minutes, washed twice with PBS, and snap-frozen. Cell pellets were then resuspended in 500 μL of Lysis Buffer (as described above) and incubated on an end-over-end rotator at 4°C for 1 hour. Lysates were clarified by centrifugation at 20,000g for 15 minutes at 4°C, and the supernatant was transferred to fresh 1.5 mL Eppendorf tubes. Protein concentration was determined by BCA assay (Thermo Fisher Scientific, 23225), yielding approximately 4 mg of protein on average. Lysates were diluted to a final concentration of 4 mg/mL for use, providing […] of total protein per MP.
(§3) Macrocycle-conjugated beads were incubated with 2 mg of lysate in Lysis Buffer for 1 hour at 4°C with rotation. After incubation, beads were collected by centrifugation at 3,000 rpm, and the flow-through was saved for analysis. Beads were then washed sequentially with 1 mL of Wash Buffer 1 (10 mM Tris-HCl, pH 7.9, 100 mM NaCl, 0.1% NP-40) and twice with Wash Buffer 2 (Wash Buffer 1 without detergent). Lastly, bound proteins were eluted from the beads with 200 μL of 0.5 M NH4OH and flash-frozen in liquid nitrogen.
All sample preparation, LC MS/MS data collection, and MS data searches were carried out at the SPARC BioCentre at The Hospital for Sick Children (Toronto, ON, Canada). Samples were reduced with DTT (10 mM, 60°C, 1 hour), alkylated with iodoacetamide (20 mM, room temperature, 45 min, dark), and digested overnight at 37°C with trypsin ([…]; Pierce). Peptides were dried by vacuum centrifugation, desalted on C18 ziptips (Millipore) using a DigestPro MSi (Intavis Bioanalytical Instruments), and dried again by vacuum centrifugation before resuspension in Buffer A (0.1% formic acid (v/v) in water). Samples were analyzed by liquid chromatography tandem mass spectrometry (LC-MS/MS) using an EASY-nanoLC 1200 system with a 1 h analysis and an Orbitrap Fusion™ Lumos™ Tribrid™ Mass Spectrometer (Thermo Fisher Scientific). The LC portion of the analysis consisted of a 18 min linear gradient running 3–20% of Buffer A to Buffer B (0.1% formic acid (v/v) in […]), followed by a 31 min linear gradient running 20–35% of Buffer A to Buffer B, a 2 min ramp to 100% Buffer B and 9 min hold at 100% Buffer B, all at a flow rate of 250 nL/min. Samples were loaded into a […] × 2 cm Acclaim PepMap 100 Pre-column followed by a 75 μm × 50 cm PepMax RSLC EASY-Spray analytical column filled with […] C18 beads (Thermo Fisher Scientific). MS1 acquisition resolution was set to 120000 with an automatic gain control (AGC) target value of 4 × 105 and maximum ion injection time (IT) of 50 ms for a scan range of m/z 375–1500, with dynamic exclusion set to 10 s. Isolation for MS2 scans was performed in the quadrupole with an isolation window of m/z 0.7. […]

Assay [2] deals with HAP40. As to the kind of experiment: Macrocycle precipitation (MP), co-purification of HAP40, LC-MS/MS. It counts as binding, human. As to conditions: HEK293T lysate versus HTT CRISPR knockout line.
From the text: To assess macrocycle selectivity and identify potential HTT interacting proteins, we performed LC-MS/MS analysis of the proteins in the MP eluates. To control for non-specific binding, we performed MPs using lysates from a HTT CRISPR knockout cell line ([Jung et al., 2021]). Across all macrocycles, HTT emerged as the most enriched protein after background subtraction (Figure 5b). Given we performed affinity purification using macrocycles targeting distinct HTT surfaces, we hypothesized that any real HTT protein binder might be co-purified with two or more macrocycles. […] In contrast, HAP40 was not enriched by HL5, consistent with its specificity for apo HTT.
as §1, §2, §3
All sample preparation, LC MS/MS data collection, and MS data searches were carried out at the SPARC BioCentre at The Hospital for Sick Children (Toronto, ON, Canada). […] Samples were analyzed by liquid chromatography tandem mass spectrometry (LC-MS/MS) using an EASY-nanoLC 1200 system with a 1 h analysis and an Orbitrap Fusion™ Lumos™ Tribrid™ Mass Spectrometer (Thermo Fisher Scientific). […]

Assay [3] deals with T1, HTTQ23-HAP40 (Homo sapiens, UniProt P23610+P42858, INS38QQ).
T1 construct: Full-length wildtype HTT with a polyQ tract of 23 glutamines; FLAG; made in house; host or cells: Sf9 insect cells (baculovirus)
Nature of the assay: Thermal shift assay (DSF), HTTQ23-HAP40. Format: binding. The note with it: SYPRO Orange, 0.25 mg/mL protein, macrocycle up to 10 μM, 2.5% DMSO, n=3. The protocol:
In an Axygen® 384-well PCR microplate (REF# PCR-384-LC480-W-NF, Corning), samples were mixed to yield a final concentration of 0.25 mg/mL Q54 or Q23/HAP40, a 5-pt 2-fold serial dilution of each macrocycle (top concentration of 10 μM, 2.5% DMSO), and 5X SYPRO™ Orange (CAT# S6650, Thermo Fisher Scientific) in buffer (20 mM HEPES pH 7.4, 150 mM NaCl, 1 mM TCEP, 0.005% Tween-20). Differential Scanning Fluorimetry (DSF) was performed using a LightCycler® 480 (Roche LifeSciences) set to a 4 °C/min temperature ramp (20–95 °C) and fluorescence detection at 580 nm. Melting temperatures (Tm) were obtained from the minima of the negative derivative of each curve. The propagated error of the thermal shift (ΔTm) was calculated from the standard deviation of each Tm mean (n=3). To ensure a maximally macrocycle-bound fraction (KD ~10 nM; ~100% bound) at 0.25 mg/mL HTT or HTT-HAP40 (~0.7 μM), the upper limit of macrocycle tested was 10 μM.
98 Supplementary Figure. 10. Thermal shift (ΔTm) induced by macrocycle binding. Melting
99 temperature of HTTQ54 (left) with HL5 or HL2 minus HTTQ54 with DMSO (46.5 °C), and (right)
100 HTTQ23-HAP40 with HD4, HL2, HL5, HHD2, HHD3, or HHL1 minus HTTQ23-HAP40 with DMSO
101 (51.0 °C). ΔTm significance was determined using an unpaired t-test with Welch correction,
102 comparing to the mean Tm of Q54 or Q23-HAP40 with DMSO; *P < 0.05, **P < 0.01, ***P <
103 0.001. The summary table reports the ΔTm and exact P value at the highest concentration tested
(1 picture or pasted object on this page, not shown here)

Assay [4] addresses HTTQ54-HAP40 (UniProt P23610 1-371). Nature of the assay: FP.
Assay [5] addresses C-terminally biotinylated HTTQ23 in complex with HAP40 (UniProt P23610 1-371, biotin on the C-terminal Avi-tag). As to the kind of experiment: SPR.

HTTQ54-HAP40, sequence (P42858 other isoform, or with tags, fused parts or gaps, chain 1 of 2): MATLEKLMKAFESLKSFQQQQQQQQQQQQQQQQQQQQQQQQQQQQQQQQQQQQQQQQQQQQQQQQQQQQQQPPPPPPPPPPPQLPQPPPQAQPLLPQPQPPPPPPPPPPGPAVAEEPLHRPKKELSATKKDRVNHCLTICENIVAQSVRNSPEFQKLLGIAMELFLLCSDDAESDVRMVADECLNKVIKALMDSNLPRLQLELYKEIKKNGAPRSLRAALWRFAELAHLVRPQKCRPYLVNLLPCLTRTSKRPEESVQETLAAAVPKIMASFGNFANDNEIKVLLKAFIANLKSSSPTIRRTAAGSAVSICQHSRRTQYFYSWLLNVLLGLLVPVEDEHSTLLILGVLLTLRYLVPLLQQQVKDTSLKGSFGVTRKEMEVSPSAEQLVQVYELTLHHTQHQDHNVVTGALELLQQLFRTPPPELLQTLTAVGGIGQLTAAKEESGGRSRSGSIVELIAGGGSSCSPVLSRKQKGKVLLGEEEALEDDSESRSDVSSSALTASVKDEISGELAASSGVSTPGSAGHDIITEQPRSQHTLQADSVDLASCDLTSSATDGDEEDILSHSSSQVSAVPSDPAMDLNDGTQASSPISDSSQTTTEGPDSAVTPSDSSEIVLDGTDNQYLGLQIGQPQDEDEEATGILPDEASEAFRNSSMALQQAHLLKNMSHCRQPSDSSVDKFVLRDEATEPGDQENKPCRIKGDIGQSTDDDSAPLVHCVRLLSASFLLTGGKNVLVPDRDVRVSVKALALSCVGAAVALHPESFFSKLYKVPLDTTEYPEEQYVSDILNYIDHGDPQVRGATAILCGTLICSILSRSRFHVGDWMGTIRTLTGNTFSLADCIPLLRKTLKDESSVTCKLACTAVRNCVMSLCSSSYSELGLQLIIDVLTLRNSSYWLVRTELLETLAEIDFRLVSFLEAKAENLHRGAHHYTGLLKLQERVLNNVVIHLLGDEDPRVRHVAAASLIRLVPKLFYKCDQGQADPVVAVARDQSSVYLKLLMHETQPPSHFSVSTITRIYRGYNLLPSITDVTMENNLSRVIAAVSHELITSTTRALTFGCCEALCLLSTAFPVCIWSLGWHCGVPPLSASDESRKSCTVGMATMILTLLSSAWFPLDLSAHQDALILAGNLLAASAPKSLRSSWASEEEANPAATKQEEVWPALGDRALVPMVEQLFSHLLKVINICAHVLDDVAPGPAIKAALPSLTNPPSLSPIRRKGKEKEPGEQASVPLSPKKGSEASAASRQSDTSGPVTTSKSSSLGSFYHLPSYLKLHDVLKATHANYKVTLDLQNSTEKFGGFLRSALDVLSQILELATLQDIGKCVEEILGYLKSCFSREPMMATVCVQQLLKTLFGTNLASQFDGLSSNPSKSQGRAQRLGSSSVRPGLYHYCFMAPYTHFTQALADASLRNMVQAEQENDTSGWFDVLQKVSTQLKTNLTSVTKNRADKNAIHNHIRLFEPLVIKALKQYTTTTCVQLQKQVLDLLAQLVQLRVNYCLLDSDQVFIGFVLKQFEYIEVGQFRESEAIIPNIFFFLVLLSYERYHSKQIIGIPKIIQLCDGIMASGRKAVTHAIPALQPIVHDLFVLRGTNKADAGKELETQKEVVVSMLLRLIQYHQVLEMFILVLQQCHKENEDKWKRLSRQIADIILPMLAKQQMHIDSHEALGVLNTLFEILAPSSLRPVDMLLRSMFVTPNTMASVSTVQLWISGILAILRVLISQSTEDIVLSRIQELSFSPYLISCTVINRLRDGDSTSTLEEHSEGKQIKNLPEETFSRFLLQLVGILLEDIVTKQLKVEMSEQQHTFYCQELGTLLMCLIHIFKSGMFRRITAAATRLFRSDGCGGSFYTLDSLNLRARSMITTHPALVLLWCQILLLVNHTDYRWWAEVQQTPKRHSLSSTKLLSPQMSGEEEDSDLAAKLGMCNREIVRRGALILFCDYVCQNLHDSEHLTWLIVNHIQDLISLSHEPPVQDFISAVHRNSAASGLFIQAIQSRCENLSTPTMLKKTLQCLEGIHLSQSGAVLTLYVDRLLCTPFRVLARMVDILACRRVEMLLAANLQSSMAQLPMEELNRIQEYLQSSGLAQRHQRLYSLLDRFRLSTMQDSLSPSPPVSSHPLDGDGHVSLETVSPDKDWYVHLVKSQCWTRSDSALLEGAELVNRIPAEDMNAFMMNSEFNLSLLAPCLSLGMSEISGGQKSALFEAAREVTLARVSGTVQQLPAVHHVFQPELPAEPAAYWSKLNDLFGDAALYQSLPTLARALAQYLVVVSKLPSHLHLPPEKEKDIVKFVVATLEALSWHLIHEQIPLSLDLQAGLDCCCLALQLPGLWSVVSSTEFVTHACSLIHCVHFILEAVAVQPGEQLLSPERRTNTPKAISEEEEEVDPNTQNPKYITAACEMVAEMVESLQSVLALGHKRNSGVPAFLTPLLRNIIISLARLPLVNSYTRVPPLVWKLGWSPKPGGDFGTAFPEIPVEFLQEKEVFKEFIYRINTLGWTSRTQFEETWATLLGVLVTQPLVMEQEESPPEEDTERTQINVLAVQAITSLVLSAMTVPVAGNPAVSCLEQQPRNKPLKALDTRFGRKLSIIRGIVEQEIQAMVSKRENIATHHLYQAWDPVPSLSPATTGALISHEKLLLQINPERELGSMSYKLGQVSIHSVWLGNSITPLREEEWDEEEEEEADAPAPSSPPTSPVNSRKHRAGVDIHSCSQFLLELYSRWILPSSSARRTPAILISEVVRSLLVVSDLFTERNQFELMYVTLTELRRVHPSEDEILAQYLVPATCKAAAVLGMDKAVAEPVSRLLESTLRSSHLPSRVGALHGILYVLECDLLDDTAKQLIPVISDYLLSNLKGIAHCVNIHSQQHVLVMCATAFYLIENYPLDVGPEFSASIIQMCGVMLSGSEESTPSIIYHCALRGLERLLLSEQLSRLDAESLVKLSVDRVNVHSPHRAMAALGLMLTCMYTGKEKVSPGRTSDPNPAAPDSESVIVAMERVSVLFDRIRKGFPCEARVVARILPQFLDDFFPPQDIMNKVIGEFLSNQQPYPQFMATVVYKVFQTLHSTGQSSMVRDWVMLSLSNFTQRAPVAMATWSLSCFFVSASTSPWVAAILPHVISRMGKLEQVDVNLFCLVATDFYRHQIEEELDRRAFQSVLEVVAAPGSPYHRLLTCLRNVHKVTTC
HTTQ54-HAP40, sequence (P23610 whole entry, chain 2 of 2): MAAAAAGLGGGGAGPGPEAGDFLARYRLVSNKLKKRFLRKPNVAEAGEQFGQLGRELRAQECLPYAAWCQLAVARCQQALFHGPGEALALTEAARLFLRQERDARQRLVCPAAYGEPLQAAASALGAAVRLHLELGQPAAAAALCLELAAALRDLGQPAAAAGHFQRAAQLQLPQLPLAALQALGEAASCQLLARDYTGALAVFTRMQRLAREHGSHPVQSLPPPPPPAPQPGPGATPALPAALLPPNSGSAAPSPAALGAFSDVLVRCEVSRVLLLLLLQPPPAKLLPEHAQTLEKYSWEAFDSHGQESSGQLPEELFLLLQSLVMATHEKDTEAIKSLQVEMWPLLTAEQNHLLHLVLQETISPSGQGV

For “HHL1-AK-Bio: biotinylated derivative of HHL1 with a 2 amino acid linker (AK-Bio) ({CH2CO}-YLIRSSFNWFVFVEVPCAK; thioether N-17 (inferred); also: biotin joined via 2 amino acid linker AK)”, the “Capture of endogenous HTT by immobilized biotinylated macrocycle” value (from here on “Capture of endogenous HTT”) in assay [1] was “no detectable binding”.
For the molecule “HHD3-AK-Bio: biotinylated derivative of HHD3 with a 2 amino acid linker (AK-Bio) ({CH2CO}-[dY]TRHWQNNWWILYHEFCAK; thioether N-17 (inferred); also: biotin joined via AK linker, site not given here)”, in assay [1], the “Capture of endogenous HTT” value is “captured”.
Regarding “HL5-PEG11-Bio: biotinylated derivative of HL5 with a PEG11 spacer ({CH2CO}-YTHFQVAPWIQSLC; thioether N-14 (inferred); also: biotin joined via PEG11 spacer)”, in assay [1], the “Capture of endogenous HTT” value was “captured”.
For “HL2-PEG11-Bio: biotinylated derivative of HL2 with a PEG11 spacer ({CH2CO}-YTARYLTLGTLHYKC; thioether N-15 (inferred); also: biotin joined via PEG11 spacer)”, the “Capture of endogenous HTT” value in assay [1] is reported as “captured”.
As to “HD4-AK-Bio: biotinylated derivative of HD4 with a 2 amino acid linker (AK-Bio) (Ac-[dY]DIWCETNKQTGILVLCAK; thioether (positions not given here); also: thioether to downstream Cys, which of Cys5/Cys17 not given here, biotin joined via AK linker, site not given here)”, the “Capture of endogenous HTT” value in assay [1] is recorded as “captured”.
As for “HHL1-PEG11-Bio: biotinylated derivative of HHL1 with a PEG11 spacer ({CH2CO}-YLIRSSFNWFVFVEVPC; thioether N-17 (inferred); also: biotin joined via PEG11 spacer)”, the “Capture of endogenous HTT” value in assay [1] is given as “no detectable binding”.
As to `CC[C@H](C)[C@H](NC(=O)CNC(=O)[C@@H](NC(=O)[C@H](CCC(N)=O)NC(=O)[C@H](CCCCN)NC(=O)[C@H](CC(N)=O)NC(=O)[C@@H](NC(=O)[C@H](CCC(=O)O)NC(=O)[C@@H]1CSCC(=O)N[C@H](Cc2ccc(O)cc2)C(=O)N[C@@H](CC(=O)O)C(=O)N[C@@H]([C@@H](C)CC)C(=O)N[C@@H](Cc2c[nH]c3ccccc23)C(=O)N1)[C@@H](C)O)[C@@H](C)O)C(=O)N[C@@H](CC(C)C)C(=O)N[C@H](C(=O)N[C@@H](CC(C)C)C(=O)N[C@@H](CS)C(N)=O)C(C)C` [HD4] ({CH2CO}-[dY]DIWCETNKQTGILVLC-NH2; thioether N-5), the “Enrichment of HAP40 in macrocycle pulldowns” value in assay [2] is recorded as “consistently enriched”. The “Thermal shift (ΔTm) of HTTQ23-HAP40 induced by macrocycle” value in assay [3] is on record as “No significant thermal effects”.
As a reminder, the Kd is the concentration at which binding is half-saturated. A higher Kd goes with a looser complex. For {CH2CO}-YLIRSSFNWFVFVEVPC-{FITC′} (thioether N-17 (inferred); not fully specified) [FITC-labeled HHL1], binding in assay [4] was put at a Kd of 2.6 nM.
{CH2CO}-[dY]TRHWQNNWWILYHEFC-{FITC′} (thioether N-17 (inferred); not fully specified) [FITC-labeled HHD3] displayed a Kd in assay [4] of 2.6 nM.
Same read-out and setting: the result for {CH2CO}-YTARYLTLGTLHYKC-{FITC′} (thioether N-15 (inferred); not fully specified) [FITC-labeled HL2] reads 4 nM.
{CH2CO}-YTARYLTLGTLHYKC (thioether N-15 (inferred)) [HL2] had a Kd in assay [5] of 2 nM.
